Data as given in patent publication US20210115509A1, “BIOMARKER FOR IDENTIFYING SPECIFIC EXPOSURE TO KETONES AND METHOD OF IDENTIFICATION USING THE SAME” (KOREA INSTITUTE OF SCIENCE AND TECHNOLOGY, priority 2019, published 2021).

Tests used:
[1] = tested on: BEAS-2B human bronchial epithelial cell line; experiment: MTT assay, cytotoxicity of ketone compounds in BEAS-2B cell line; type: cell-based
Protocol: BEAS-2B (Korean Cell Line Bank), a human bronchial epithelial cell line, was cultured using RPMI 1640 medium (Gibco, USA) supplemented with 10% FBS until the cells grew to about a confluence of 70 to 80% in a 100 mm dish.
Among ketones belonging to mVOCs (microbial volatile organic compounds) exposed to the environment, acetone, 2-butanone, 2-pentanone, 2-hexanone and 2-heptanone were selected, and the chemicals were dissolved in filtered distilled water (DW). A vehicle concentration was set to 0.1% or less in all experiments.
MTT assay using a BEAS-2B cell line was performed in accordance with the method of Mossman et al. (J. Immunol. Methods, 65, 55-63, 1983).
Specifically, the cells were seeded at a density of 3.5×10^4 cells/well in a 24-well plate and treated with the five ketone compounds dissolved in filtered distilled water, prepared in Example 1-2. After 48 hours, the result was mixed with 5 mg/ml of MTT (3-4,5-dimethylthiazol-2,5-diphenyltetrazolium bromide), added to a tube and incubated at 37° C. for 3 hours. Then, the medium was removed, the formed formazan crystal was dissolved in 500 μl of DMSO, and then 100 μl of the solution was transferred to a 96-well plate to measure an OD (optical density) value at 540 nm.

[2] = tested on: BEAS-2B human bronchial epithelial cell line; experiment: Gene expression change by high-throughput RNA sequencing (NextSeq 500) in ketone-exposed BEAS-2B cells; type: cell-based
Protocol: RNA was extracted from cell samples of ketone-exposed and non-ketone-exposed groups using a TRIzol reagent (Life Technologies, USA) in accordance with the manufacturer's directions to isolate total RNA and the total RNA was purified using a RNeasy mini kit (Qiagen, USA). The concentration of each total RNA sample was determined by a ND-2000 spectrophotometer (Thermo Inc., DE, USA) as a spectrophotometer and Agilent 2100 Bioanalyzer (Agilent Technologies, USA).
The establishment of libraries from the total RNA obtained in Example 2-1 in the experimental group and the normal control group exposed to the ketones was carried out using a QuantSeq 3′ mRNA-Seq Library Prep Kit (Lexogen, Inc., Austria) in accordance with the manufacturer's directions. 500 ng of the total RNA was hybridized with an oligo-dT primer including an Illumina-compatible sequence at the 5′ end of RNA, followed by reverse transcription. After degradation of the RNA template, a second strand was synthesized using a random primer including an Illumina-compatible linker sequence at the 5′ end thereof. Double-stranded libraries were purified using magnetic beads to remove all reaction components. The library was amplified in order to add the entire adapter sequence required for cluster production, and the completed cDNA library was purified from the PCR components.
Sequencing was performed by high-throughput sequencing as single-end 75 sequencing using a NextSeq 500 (IIlumina, Inc., USA). Read count (RC) data was processed based on the quantile normalization method using EdgeR in R (R development Core Team, 2016) using Bioconductor (Gentleman et al., 2004). Gene classification was based on searches performed on DAVID (http://david.abcc.ncifcrf.gov/) and the Medline database (http://www.ncbi.nlm.nih.gov/).
The extracted data were analyzed through normalization using Agilent GeneSpring GX 12.6.1 (Agilent technologies, CA, USA) to analyze the expression pattern of each gene.

[3] = IC5 conc.: Acetone 5.38, 2-Butanone 22.27, 2-Pentanone 5.24, 2-Hexanone 14.82, 2-Heptanone 5.05 mM
[4] = IC20 conc.: Acetone 71.90, 2-Butanone 106.21, 2-Pentanone 39.38, 2-Hexanone 52.51, 2-Heptanone 20.22 mM

CC(C)=O [Acetone, acetone]
concentration (105) providing a survival rate (viability) of 95% ([1]; BEAS-2B, 48 hours, MTT): 5380 µM
concentration (1020) providing a survival rate (viability) of 80% ([1]; BEAS-2B, 48 hours, MTT): 71900 µM
Fold change ADRA2A (NM_000681) [2, 3]: 0.179
Fold change ATRNL1 (NR_074088) [2, 3]: 3.000
Fold change C12orf79 (NR_046159) [2, 3]: 0.213
Fold change C14orf80 (NR_046159) [2, 3]: 0.354
Fold change CALML3 (NM_001286399) [2, 3]: 0.354
Fold change CCDC184 (NM_001013635) [2, 3]: 12.166
Fold change CD37 (NM_001040031) [2, 3]: 2.781
Fold change CDHR1 (NM_001171971) [2, 3]: 0.409
Fold change CHL1 (NM_001253387) [2, 3]: 0.224
Fold change COL4A3 (NM_000091) [2, 3]: 4.046
Fold change CRLF2 (NM_022148) [2, 3]: 0.355
Fold change CSF3R (NM_172313) [2, 3]: 0.354
Fold change DNMBP-AS1 (NR_024130) [2, 3]: 2.455
Fold change EGR1 (NM_001964) [2, 3]: 0.422
Fold change GNA14 (NM_004297) [2, 3]: 5.492
Fold change LOC728752 (NR_036504) [2, 3]: 4.554
Fold change PAX8 (NM_003466) [2, 3]: 2.753
Fold change PRRT3-AS1 (NR_046734) [2, 3]: 2.261
Fold change RBP3 (NM_002900) [2, 3]: 0.354
Fold change SEPT14 (NM_207366) [2, 3]: 0.214
Fold change SERPINA12 (NM_001304461) [2, 3]: 0.354
Fold change SLC13A4 (NM_012450) [2, 3]: 10.528
Fold change SPOCK2 (NM_001244950) [2, 3]: 5.291
Fold change TSPAN1 (NM_005727) [2, 3]: 5.935
Fold change USP12-AB1 (NR_046647) [2, 3]: 3.620
Fold change VIPR†-AS1 (NR_046654) [2, 3]: 0.354
Fold change XIRP1 (NM_001198621) [2, 3]: 0.354
Fold change ZFP69B (NM_023070) [2, 3]: 2.708
Fold change ZNF432 (NM_014650) [2, 3]: 4.647
Fold change ZNF487 (NR_026693) [2, 3]: 0.354
Fold change ADRA2A (NM_000681) [2, 4]: 0.355
Fold change ATRNL1 (NR_074088) [2, 4]: 2.751
Fold change C12orf79 (NR_046159) [2, 4]: 0.213
Fold change C14orf80 (NR_046159) [2, 4]: 0.354
Fold change CALML3 (NM_001286399) [2, 4]: 0.354
Fold change CCDC184 (NM_001013635) [2, 4]: 4.927
Fold change CD37 (NM_001040031) [2, 4]: 2.526
Fold change CDHR1 (NM_001171971) [2, 4]: 0.429
Fold change CHL1 (NM_001253387) [2, 4]: 0.360
Fold change COL4A3 (NM_000091) [2, 4]: 2.490
Fold change CRLF2 (NM_022148) [2, 4]: 0.357
Fold change CSF3R (NM_172313) [2, 4]: 0.358
Fold change DNMBP-AS1 (NR_024130) [2, 4]: 5.285
Fold change EGR1 (NM_001964) [2, 4]: 0.437
Fold change GNA14 (NM_004297) [2, 4]: 2.289
Fold change LOC728752 (NR_036504) [2, 4]: 4.939
Fold change PAX8 (NM_003466) [2, 4]: 5.800
Fold change PRRT3-AS1 (NR_046734) [2, 4]: 2.061
Fold change RBP3 (NM_002900) [2, 4]: 0.376
Fold change SEPT14 (NM_207366) [2, 4]: 0.214
Fold change SERPINA12 (NM_001304461) [2, 4]: 0.354
Fold change SLC13A4 (NM_012450) [2, 4]: 12.386
Fold change SPOCK2 (NM_001244950) [2, 4]: 5.054
Fold change TSPAN1 (NM_005727) [2, 4]: 2.949
Fold change USP12-AB1 (NR_046647) [2, 4]: 6.910
Fold change VIPR†-AS1 (NR_046654) [2, 4]: 0.354
Fold change XIRP1 (NM_001198621) [2, 4]: 0.354
Fold change ZFP69B (NM_023070) [2, 4]: 4.454
Fold change ZNF432 (NM_014650) [2, 4]: 5.319
Fold change ZNF487 (NR_026693) [2, 4]: 0.354

CCCCC(C)=O [2-Hexanone, 2-hexanone]
concentration (105) providing a survival rate (viability) of 95% ([1]; human, 48 h): 14820 µM
concentration (1020) providing a survival rate (viability) of 80% ([1]; human, 48 h): 52510 µM
Fold change ADRA2A (NM_000681) [2, 3]: 0.410
Fold change ATRNL1 (NR_074088) [2, 3]: 2.058
Fold change C12orf79 (NR_046159) [2, 3]: 0.218
Fold change C14orf80 (NR_046159) [2, 3]: 0.358
Fold change CALML3 (NM_001286399) [2, 3]: 0.358
Fold change CCDC184 (NM_001013635) [2, 3]: 3.872
Fold change CD37 (NM_001040031) [2, 3]: 4.214
Fold change CDHR1 (NM_001171971) [2, 3]: 0.228
Fold change CHL1 (NM_001253387) [2, 3]: 0.296
Fold change COL4A3 (NM_000091) [2, 3]: 4.765
Fold change CRLF2 (NM_022148) [2, 3]: 0.362
Fold change CSF3R (NM_172313) [2, 3]: 0.358
Fold change DNMBP-AS1 (NR_024130) [2, 3]: 14.919
Fold change EGR1 (NM_001964) [2, 3]: 0.448
Fold change GNA14 (NM_004297) [2, 3]: 8.515
Fold change LOC728752 (NR_036504) [2, 3]: 6.212
Fold change PAX8 (NM_003466) [2, 3]: 5.964
Fold change PRRT3-AS1 (NR_046734) [2, 3]: 2.811
Fold change RBP3 (NM_002900) [2, 3]: 0.358
Fold change SEPT14 (NM_207366) [2, 3]: 0.220
Fold change SERPINA12 (NM_001304461) [2, 3]: 0.358
Fold change SLC13A4 (NM_012450) [2, 3]: 4.947
Fold change SPOCK2 (NM_001244950) [2, 3]: 4.851
Fold change TSPAN1 (NM_005727) [2, 3]: 2.828
Fold change USP12-AB1 (NR_046647) [2, 3]: 3.862
Fold change VIPR†-AS1 (NR_046654) [2, 3]: 0.358
Fold change XIRP1 (NM_001198621) [2, 3]: 0.358
Fold change ZFP69B (NM_023070) [2, 3]: 4.095
Fold change ZNF432 (NM_014650) [2, 3]: 5.206
Fold change ZNF487 (NR_026693) [2, 3]: 0.358
Fold change ADRA2A (NM_000681) [2, 4]: 0.179
Fold change ATRNL1 (NR_074088) [2, 4]: 2.281
Fold change C12orf79 (NR_046159) [2, 4]: 0.213
Fold change C14orf80 (NR_046159) [2, 4]: 0.354
Fold change CALML3 (NM_001286399) [2, 4]: 0.354
Fold change CCDC184 (NM_001013635) [2, 4]: 6.982
Fold change CD37 (NM_001040031) [2, 4]: 2.819
Fold change CDHR1 (NM_001171971) [2, 4]: 0.432
Fold change CHL1 (NM_001253387) [2, 4]: 0.364
Fold change COL4A3 (NM_000091) [2, 4]: 4.424
Fold change CRLF2 (NM_022148) [2, 4]: 0.355
Fold change CSF3R (NM_172313) [2, 4]: 0.354
Fold change DNMBP-AS1 (NR_024130) [2, 4]: 5.009
Fold change EGR1 (NM_001964) [2, 4]: 0.328
Fold change GNA14 (NM_004297) [2, 4]: 4.986
Fold change LOC728752 (NR_036504) [2, 4]: 6.982
Fold change PAX8 (NM_003466) [2, 4]: 2.992
Fold change PRRT3-AS1 (NR_046734) [2, 4]: 3.123
Fold change RBP3 (NM_002900) [2, 4]: 0.354
Fold change SEPT14 (NM_207366) [2, 4]: 0.214
Fold change SERPINA12 (NM_001304461) [2, 4]: 0.354
Fold change SLC13A4 (NM_012450) [2, 4]: 7.012
Fold change SPOCK2 (NM_001244950) [2, 4]: 3.833
Fold change TSPAN1 (NM_005727) [2, 4]: 4.272
Fold change USP12-AB1 (NR_046647) [2, 4]: 3.988
Fold change VIPR†-AS1 (NR_046654) [2, 4]: 0.354
Fold change XIRP1 (NM_001198621) [2, 4]: 0.354
Fold change ZFP69B (NM_023070) [2, 4]: 2.573
Fold change ZNF432 (NM_014650) [2, 4]: 4.577
Fold change ZNF487 (NR_026693) [2, 4]: 0.354
